The assay has as its system overweight or obese subjects with prediabetes or mild type 2 diabetes. Description: Frequently sampled intravenous glucose tolerance test (FSIVGTT). The class given is in vivo, human. The conditions noted are these: Ln(FFA) slope / AUC insulin 0-90 min of FSIVGTT; 50 mg every 6 hours for 9 days; mean±SD, n=16. Here is the method: A randomized, placebo-controlled, double-blind crossover trial was conducted to evaluate the use of an anti-glucocorticoid as a means for ameliorating insulin resistance. Mifepristone, 50 mg, or a placebo, was administered every six hours for nine days to sixteen overweight or obese (BMI 25-37 kg/m^2) subjects (seven women). Participant ages ranged from 48 to 64 years. Ten had prediabetes and six had mild diabetes type II (HgbA1c less than 7%). Treatment of the glucose disorder with diet or a stable dose of metformin (used by two patients) was maintained for three (3) months before the study. The interventions were nine days of mifepristone or placebo treatment followed by a six (6) to eight (8) week wash out and cross over to the other arm. At baseline and at the end of each treatment period, parameters of insulin sensitivity were assessed by a frequently sampled intravenous glucose tolerance test (FSIVGTT) and an oral glucose tolerance test (OGTT). […] Adipo-IR, a surrogate measure of adipocyte insulin resistance, was calculated by multiplying fasting concentrations of free fatty acids and insulin (mmol×pmol/L). […]
Insulin sensitivity index, SI, was determined from the minimal model using data from the insulin-modified FSIVGTT as previously described (version 6.02; MinMOD Millenium, Los Angeles, Calif.). […]

The source of these data is US20220288091A1, “Method for Improving Insulin Sensitivity” (priority 2019, published 2022).

SMILES strings stand for the structures.

Take `CC#C[C@]1(O)CC[C@H]2[C@@H]3CCC4=CC(=O)CCC4=C3[C@@H](c3ccc(N(C)C)cc3)C[C@@]21C` [Mifepristone, 11beta-[p-(dimethylamino)phenyl]-17alpha-(1-propynl)estra-4,9-dien-17beta-ol-3-one]: the “Adipose-tissue Insulin Sensitivity Index (Adipose SI)” value is 61.7±32.9.
